Activity calls are given as the source filed them. No cut-off for these calls is given here.
Key:
[1] = Electro-oxidation activity at glassy carbon electrode in pH 5 acetate buffer at 50 uM by square-wave voltammetry
[2] = Antiradical activity assessed as gallic acid equivalents of Foline-Ciocalteu reagent reducing capacity at 1 mM preincubated for 5 mins followed by Na2CO3 addition measured after 90 mins
[3] = Antioxidant activity assessed as trolox equivalent of ABTS radical scavenging activity at 100 uM measured at >= 5 mins; assay type: functional
[4] = Antioxidant activity assessed as DPPH radical scavenging activity after 30 mins by spectrophotometric method; assay type: functional
[5] = system: Liver; test: Antioxidant activity against tert-butyl hydroperoxide-induced lipoperoxidation in rat liver microsomal membranes at 1 mM preincubated for 10 mins followed by tert-butyl hydroperoxide addition measured after 60 mins by TBARS assay relative to control; assay type: functional, cell membranes; conditions: Microsomal Membrane
[6] = system: Liver; test: Antioxidant activity against tert-butyl hydroperoxide-induced lipoperoxidation in rat liver microsomal membranes preincubated for 10 mins followed by tert-butyl hydroperoxide addition measured after 60 mins by TBARS assay; assay type: functional, cell membranes, Microsomal Membrane
[7] = Aqueous solubility of the compound in buffer solution; assay type: physicochemical
[8] = system: HepG2; test: Cytotoxicity against human HepG2 cells assessed as reduction in cell viability up to 10 uM after 4 hrs by MTT assay; assay type: cell-based; conditions: hepg2, 4 h
[9] = system: HepG2; test: Cytoprotective activity against tert-butyl hydroperoxide-induced toxicity in human HepG2 cells assessed as cell viability at 5 uM pretreated for 1 hr followed by co-treatment with tert-butyl hydroperoxide for 3 hrs by MTT assay (reference value: 22%); assay type: functional
[10] = system: HepG2; test: Cytoprotective activity against tert-butyl hydroperoxide-induced toxicity in human HepG2 cells assessed as cell viability at 5 uM pretreated for 1 hr followed by tert-butyl hydroperoxide addition for 3 hrs by MTT assay (reference value: 16%); assay type: functional
[11] = Electro-oxidation activity at glassy carbon electrode in pH 2 to 12 at 50 uM by square-wave voltammetry
[12] = Antioxidant activity assessed as trolox equivalent of ABTS radical scavenging activity at 100 uM measured at >= 5 mins in presence of L-ascorbic acid; assay type: functional
[13] = Antiradical activity assessed as gallic acid equivalents of Foline-Ciocalteu reagent reducing capacity at 1 mM preincubated for 5 mins followed by Na2CO3 addition measured after 90 mins in presence of L-ascorbic acid
[14] = Antioxidant activity assessed as DPPH radical scavenging activity after 30 mins in presence of L-ascorbic acid by spectrophotometric method; assay type: functional
[15] = system: HepG2; test: Cytoprotective activity against tert-butyl hydroperoxide-induced decrease in cell viability in human HepG2 cells at 5 uM pretreated for 1 hr followed by co-treatment with tert-butyl hydroperoxide for 3 hrs in presence of L-ascorbic acid by MTT assay; assay type: functional, cell-based
[16] = system: Liver; test: Antioxidant activity against tert-butyl hydroperoxide-induced lipoperoxidation in rat liver microsomal membranes preincubated for 10 mins followed by tert-butyl hydroperoxide addition measured after 60 mins in presence of L-ascorbic acid by TBARS assay; assay type: functional, cell membranes, Microsomal Membrane
[17] = Antioxidant activity assessed as DPPH radical scavenging activity after 30 mins in presence of silybin by spectrophotometric method; assay type: functional
[18] = Antioxidant activity assessed as trolox equivalent of ABTS radical scavenging activity at 100 uM measured at >= 5 mins in presence of silybin; assay type: functional
[19] = system: Liver; test: Antioxidant activity against tert-butyl hydroperoxide-induced lipoperoxidation in rat liver microsomal membranes at 50 uM preincubated for 10 mins followed by tert-butyl hydroperoxide addition measured after 60 mins by TBARS assay relative to control; assay type: functional, cell membranes; conditions: Microsomal Membrane
[20] = system: Liver; test: Antioxidant activity against tert-butyl hydroperoxide-induced lipoperoxidation in rat liver microsomal membranes preincubated for 10 mins followed by tert-butyl hydroperoxide addition measured after 60 mins in presence of silybin by TBARS assay; assay type: functional, cell membranes, Microsomal Membrane
[21] = Antiradical activity assessed as gallic acid equivalents of Foline-Ciocalteu reagent reducing capacity at 1 mM preincubated for 5 mins followed by Na2CO3 addition measured after 90 mins in presence of silybin
[22] = system: HepG2; test: Cytoprotective activity against tert-butyl hydroperoxide-induced decrease in cell viability in human HepG2 cells at 5 uM pretreated for 1 hr followed by co-treatment with tert-butyl hydroperoxide for 3 hrs in presence of silybin by MTT assay; assay type: functional, cell-based

Structure (SMILES) | Activity [1] | Activity [2] [equiv] | Activity [3] [equiv] | IC50 [4] [µM] | IC50 [6] [µM] | Activity [8] | also measured
C=COC(=O)CCCCCCCCCCC(=O)OC=C | inactive |  |  |  |  |  | 
COc1cc([C@H]2Oc3cc([C@H]4Oc5cc(O)cc(O)c5C(=O)[C@@H]4O)ccc3O[C@@H]2COC(=O)CCCCCCCCCCC(=O)OCCc2ccc(O)cc2)ccc1O | inactive | 0.17 | 0.33 | 253 | > 1000 |  | inhibition [5]: 17%
C=COC(=O)CCCCCCCCCCC(=O)OC[C@H]1Oc2ccc([C@H]3Oc4cc(O)cc(O)c4C(=O)[C@@H]3O)cc2O[C@@H]1c1ccc(O)c(OC)c1 | inactive | 0.15 | 0.93 | 372 | 111 |  | solubility [7]: Insoluble
COc1cc([C@H]2Oc3cc([C@H]4Oc5cc(O)cc(O)c5C(=O)[C@@H]4O)ccc3O[C@@H]2COC(=O)CCCCCCCCCCC(=O)OC[C@H](O)[C@H]2OC(=O)C(O)=C2O)ccc1O | Active | 0.65 | 1.32 | 20.6 | 30.2 | Non-Toxic | viability at 5 µM ([9]; read-out: Activity): 43%; viability at 5 µM ([10]; read-out: Activity): 27%; Activity [11]: Active
COc1cc([C@H]2Oc3cc([C@H]4Oc5cc(O)cc(O)c5C(=O)[C@@H]4O)ccc3O[C@@H]2COC(=O)CCCCCCCCCCC(=O)OCC2(C)CCc3c(C)c(O)c(C)c(C)c3O2)ccc1O (stereo not given in full) | inactive | 0.15 | 0.24 | 3.5 | 72.9 |  | 
COc1cc(C2Oc3cc([C@H]4Oc5cc(O)cc(O)c5C(=O)[C@@H]4O)ccc3OC2CO)ccc1O (stereo not given in full) [SILIBININ] | inactive | 0.92 | 0.78 | 244 | 77.1 | Non-Toxic | Activity [12]: 0.42 equiv; Activity [9]: inactive; Activity [13]: 0.25 equiv; Activity [10]: inactive; IC50 [14]: 2.94 µM; Activity [15]: inactive; IC50 [16]: 56.5 µM
Cc1c(C)c2c(c(C)c1O)CCC(C)(CO)O2 (stereo not given) |  |  |  | 3.58 |  |  | 
O=C1O[C@H]([C@@H](O)CO)C(O)=C1O [ASCORBIC ACID] |  | 0.51 | 0.57 | 2.76 | > 1000 | Non-Toxic | IC50 [17]: 2.94 µM; Activity [18]: 0.42 equiv; inhibition [19]: 139%; Activity [9]: inactive; IC50 [20]: 56.5 µM; Activity [10]: inactive; inhibition [5]: 13%; Activity [21]: 0.25 equiv; Activity [22]: inactive
